Data as given in ChEMBL document CHEMBL4028801, “A multifactorial approach to hepatobiliary transporter assessment enables improved therapeutic compound development” (Toxicol Sci, 2013).
Counter-ions that a name gives are not always drawn. Positions of bridges follow the written chain, without caps; N, C: chain ends. Non-standard residues stand in square brackets, D forms with d. Residues, ends and D or L forms follow the SMILES beside them. Orn = NCCC[C@H](N)C(=O)O; Mpa = O=C(O)CCS

Assays:
Bile salt export pump = Bile salt export pump (Homo sapiens, UniProt O95342); assay: Inhibition of human BSEP overexpressed in Sf9 cell membrane vesicles assessed as uptake of [3H]-taurocholate in presence of ATP measured after 15 to 20 mins by membrane vesicle transport assay; assay type: ADME, cell-based
Bile salt export pump, sequence (O95342 whole entry): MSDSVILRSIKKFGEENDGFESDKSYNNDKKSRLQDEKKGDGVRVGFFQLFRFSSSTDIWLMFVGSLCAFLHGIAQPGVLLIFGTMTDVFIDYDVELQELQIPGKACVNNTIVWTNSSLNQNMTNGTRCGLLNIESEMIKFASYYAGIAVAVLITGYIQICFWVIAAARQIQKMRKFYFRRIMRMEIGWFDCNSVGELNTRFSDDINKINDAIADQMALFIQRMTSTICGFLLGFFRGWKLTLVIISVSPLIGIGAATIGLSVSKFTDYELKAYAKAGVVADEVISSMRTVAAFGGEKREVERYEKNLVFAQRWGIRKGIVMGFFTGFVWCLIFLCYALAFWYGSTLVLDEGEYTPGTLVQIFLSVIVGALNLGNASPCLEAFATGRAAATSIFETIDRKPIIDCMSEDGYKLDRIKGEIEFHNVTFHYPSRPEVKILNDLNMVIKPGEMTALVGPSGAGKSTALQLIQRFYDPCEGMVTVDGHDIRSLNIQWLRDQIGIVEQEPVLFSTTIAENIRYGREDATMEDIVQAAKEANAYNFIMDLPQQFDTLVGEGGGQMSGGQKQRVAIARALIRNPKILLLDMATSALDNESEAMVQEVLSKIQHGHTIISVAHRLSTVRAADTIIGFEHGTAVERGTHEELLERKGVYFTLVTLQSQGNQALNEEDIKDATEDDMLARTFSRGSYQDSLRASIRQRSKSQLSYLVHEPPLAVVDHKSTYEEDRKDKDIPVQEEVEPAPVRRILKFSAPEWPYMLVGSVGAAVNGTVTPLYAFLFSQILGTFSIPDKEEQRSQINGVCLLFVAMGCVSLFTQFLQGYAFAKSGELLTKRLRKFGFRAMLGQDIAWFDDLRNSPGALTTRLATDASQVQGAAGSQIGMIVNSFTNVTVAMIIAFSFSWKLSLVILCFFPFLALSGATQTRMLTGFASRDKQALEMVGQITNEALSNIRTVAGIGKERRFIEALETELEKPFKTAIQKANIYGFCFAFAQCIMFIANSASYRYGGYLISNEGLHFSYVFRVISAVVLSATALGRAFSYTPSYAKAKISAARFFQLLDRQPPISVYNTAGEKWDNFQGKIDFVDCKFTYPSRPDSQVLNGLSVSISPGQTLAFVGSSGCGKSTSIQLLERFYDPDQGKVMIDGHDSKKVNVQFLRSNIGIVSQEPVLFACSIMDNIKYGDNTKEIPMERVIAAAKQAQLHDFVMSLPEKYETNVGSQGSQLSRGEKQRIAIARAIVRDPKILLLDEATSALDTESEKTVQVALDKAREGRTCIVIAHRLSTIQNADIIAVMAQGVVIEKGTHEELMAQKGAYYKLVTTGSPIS

[1] = biological target: ATP-binding cassette sub-family C member 3 (Homo sapiens, UniProt O15438); assay: Inhibition of human MRP3 overexpressed in Sf9 insect cell membrane vesicles assessed as uptake of [3H]-estradiol-17beta-D-glucuronide in presence of ATP and GSH measured after 10 mins by membrane vesicle transport assay; assay type: ADME, cell-based
ATP-binding cassette sub-family C member 3, sequence (O15438 whole entry): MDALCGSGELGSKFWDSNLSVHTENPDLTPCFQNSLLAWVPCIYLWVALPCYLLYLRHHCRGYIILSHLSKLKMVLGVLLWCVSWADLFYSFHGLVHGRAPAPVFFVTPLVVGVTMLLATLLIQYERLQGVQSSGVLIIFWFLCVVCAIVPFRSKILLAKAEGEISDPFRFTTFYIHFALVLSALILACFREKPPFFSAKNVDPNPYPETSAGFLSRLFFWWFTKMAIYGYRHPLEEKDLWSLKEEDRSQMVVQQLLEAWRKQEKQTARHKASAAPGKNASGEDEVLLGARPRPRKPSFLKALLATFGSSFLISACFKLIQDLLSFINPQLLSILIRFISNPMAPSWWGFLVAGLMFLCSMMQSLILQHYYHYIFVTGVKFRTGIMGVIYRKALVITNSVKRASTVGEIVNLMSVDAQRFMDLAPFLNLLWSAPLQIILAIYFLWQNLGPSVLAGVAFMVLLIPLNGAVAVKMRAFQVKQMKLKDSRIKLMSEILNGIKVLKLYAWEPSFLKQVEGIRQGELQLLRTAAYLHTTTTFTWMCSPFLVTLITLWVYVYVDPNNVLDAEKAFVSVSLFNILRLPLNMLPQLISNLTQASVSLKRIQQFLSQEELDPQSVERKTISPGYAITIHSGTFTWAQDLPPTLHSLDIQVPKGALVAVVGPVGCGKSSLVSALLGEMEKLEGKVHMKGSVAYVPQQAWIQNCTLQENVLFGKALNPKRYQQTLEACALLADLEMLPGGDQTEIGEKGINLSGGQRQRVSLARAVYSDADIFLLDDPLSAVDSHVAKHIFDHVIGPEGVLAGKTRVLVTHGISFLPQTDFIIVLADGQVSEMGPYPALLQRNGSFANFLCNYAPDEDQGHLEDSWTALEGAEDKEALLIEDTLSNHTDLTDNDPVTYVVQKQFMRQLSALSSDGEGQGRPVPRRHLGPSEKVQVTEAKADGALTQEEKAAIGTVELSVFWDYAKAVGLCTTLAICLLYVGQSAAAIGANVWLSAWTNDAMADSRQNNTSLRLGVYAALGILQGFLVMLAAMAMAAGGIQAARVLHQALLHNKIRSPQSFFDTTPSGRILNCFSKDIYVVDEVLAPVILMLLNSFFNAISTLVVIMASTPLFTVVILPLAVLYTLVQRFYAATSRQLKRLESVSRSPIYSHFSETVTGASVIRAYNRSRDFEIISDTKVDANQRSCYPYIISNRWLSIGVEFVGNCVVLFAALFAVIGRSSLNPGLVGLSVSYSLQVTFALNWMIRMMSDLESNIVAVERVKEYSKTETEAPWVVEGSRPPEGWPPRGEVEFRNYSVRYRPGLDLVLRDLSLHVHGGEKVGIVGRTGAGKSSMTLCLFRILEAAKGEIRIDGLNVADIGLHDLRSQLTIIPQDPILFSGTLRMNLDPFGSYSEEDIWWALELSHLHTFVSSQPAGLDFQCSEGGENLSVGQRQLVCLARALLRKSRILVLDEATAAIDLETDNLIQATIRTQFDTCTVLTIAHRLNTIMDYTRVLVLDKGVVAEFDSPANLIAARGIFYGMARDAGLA

[2] = biological target: T1, ATP-binding cassette sub-family C member 4 (Homo sapiens, UniProt O15439); assay: Inhibition of human MRP4 overexpressed in Sf9 cell membrane vesicles assessed as uptake of [3H]-estradiol-17beta-D-glucuronide in presence of ATP and GSH measured after 20 mins by membrane vesicle transport assay; assay type: ADME, cell-based
T1 sequence (O15439 whole entry): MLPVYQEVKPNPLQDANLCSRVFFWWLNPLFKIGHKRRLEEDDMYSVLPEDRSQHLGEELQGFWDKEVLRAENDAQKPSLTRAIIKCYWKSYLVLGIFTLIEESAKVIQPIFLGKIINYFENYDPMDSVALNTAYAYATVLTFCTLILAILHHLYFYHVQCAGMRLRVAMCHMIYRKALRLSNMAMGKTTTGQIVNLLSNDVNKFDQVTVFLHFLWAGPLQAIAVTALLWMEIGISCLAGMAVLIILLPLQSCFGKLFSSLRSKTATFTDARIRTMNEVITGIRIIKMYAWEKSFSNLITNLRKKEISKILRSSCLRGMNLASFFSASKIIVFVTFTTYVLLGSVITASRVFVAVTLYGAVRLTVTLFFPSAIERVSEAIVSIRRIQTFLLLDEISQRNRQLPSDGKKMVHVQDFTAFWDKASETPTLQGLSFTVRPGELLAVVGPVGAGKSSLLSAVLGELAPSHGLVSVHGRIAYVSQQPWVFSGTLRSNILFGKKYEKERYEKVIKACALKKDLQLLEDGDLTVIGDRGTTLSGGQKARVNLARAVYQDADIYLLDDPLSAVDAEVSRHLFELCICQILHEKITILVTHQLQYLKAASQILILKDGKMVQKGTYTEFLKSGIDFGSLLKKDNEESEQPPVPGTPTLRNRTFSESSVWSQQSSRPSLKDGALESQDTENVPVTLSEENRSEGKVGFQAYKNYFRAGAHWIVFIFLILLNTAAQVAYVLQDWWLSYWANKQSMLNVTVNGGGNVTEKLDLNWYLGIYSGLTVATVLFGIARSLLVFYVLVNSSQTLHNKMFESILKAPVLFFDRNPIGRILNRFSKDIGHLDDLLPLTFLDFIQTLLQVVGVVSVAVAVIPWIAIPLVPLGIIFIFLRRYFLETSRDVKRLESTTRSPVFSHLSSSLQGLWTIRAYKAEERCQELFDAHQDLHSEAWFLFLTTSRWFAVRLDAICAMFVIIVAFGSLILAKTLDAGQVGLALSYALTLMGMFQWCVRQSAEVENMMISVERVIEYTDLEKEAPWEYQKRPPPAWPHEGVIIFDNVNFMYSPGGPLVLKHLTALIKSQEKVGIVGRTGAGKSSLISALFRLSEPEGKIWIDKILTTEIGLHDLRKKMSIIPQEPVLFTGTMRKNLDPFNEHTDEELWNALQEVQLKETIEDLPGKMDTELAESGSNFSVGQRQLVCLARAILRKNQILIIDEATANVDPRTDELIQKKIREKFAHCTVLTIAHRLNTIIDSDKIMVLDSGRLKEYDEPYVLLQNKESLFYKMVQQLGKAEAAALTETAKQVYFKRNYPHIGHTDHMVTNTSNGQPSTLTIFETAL

[3] = biological target: ATP-binding cassette sub-family C member 2 (Homo sapiens, UniProt Q92887); assay: Inhibition of human MRP2 overexpressed in Sf9 cell membrane vesicles assessed as uptake of [3H]-estradiol-17beta-D-glucuronide in presence of ATP and GSH measured after 20 mins by membrane vesicle transport assay
ATP-binding cassette sub-family C member 2, sequence (Q92887 whole entry): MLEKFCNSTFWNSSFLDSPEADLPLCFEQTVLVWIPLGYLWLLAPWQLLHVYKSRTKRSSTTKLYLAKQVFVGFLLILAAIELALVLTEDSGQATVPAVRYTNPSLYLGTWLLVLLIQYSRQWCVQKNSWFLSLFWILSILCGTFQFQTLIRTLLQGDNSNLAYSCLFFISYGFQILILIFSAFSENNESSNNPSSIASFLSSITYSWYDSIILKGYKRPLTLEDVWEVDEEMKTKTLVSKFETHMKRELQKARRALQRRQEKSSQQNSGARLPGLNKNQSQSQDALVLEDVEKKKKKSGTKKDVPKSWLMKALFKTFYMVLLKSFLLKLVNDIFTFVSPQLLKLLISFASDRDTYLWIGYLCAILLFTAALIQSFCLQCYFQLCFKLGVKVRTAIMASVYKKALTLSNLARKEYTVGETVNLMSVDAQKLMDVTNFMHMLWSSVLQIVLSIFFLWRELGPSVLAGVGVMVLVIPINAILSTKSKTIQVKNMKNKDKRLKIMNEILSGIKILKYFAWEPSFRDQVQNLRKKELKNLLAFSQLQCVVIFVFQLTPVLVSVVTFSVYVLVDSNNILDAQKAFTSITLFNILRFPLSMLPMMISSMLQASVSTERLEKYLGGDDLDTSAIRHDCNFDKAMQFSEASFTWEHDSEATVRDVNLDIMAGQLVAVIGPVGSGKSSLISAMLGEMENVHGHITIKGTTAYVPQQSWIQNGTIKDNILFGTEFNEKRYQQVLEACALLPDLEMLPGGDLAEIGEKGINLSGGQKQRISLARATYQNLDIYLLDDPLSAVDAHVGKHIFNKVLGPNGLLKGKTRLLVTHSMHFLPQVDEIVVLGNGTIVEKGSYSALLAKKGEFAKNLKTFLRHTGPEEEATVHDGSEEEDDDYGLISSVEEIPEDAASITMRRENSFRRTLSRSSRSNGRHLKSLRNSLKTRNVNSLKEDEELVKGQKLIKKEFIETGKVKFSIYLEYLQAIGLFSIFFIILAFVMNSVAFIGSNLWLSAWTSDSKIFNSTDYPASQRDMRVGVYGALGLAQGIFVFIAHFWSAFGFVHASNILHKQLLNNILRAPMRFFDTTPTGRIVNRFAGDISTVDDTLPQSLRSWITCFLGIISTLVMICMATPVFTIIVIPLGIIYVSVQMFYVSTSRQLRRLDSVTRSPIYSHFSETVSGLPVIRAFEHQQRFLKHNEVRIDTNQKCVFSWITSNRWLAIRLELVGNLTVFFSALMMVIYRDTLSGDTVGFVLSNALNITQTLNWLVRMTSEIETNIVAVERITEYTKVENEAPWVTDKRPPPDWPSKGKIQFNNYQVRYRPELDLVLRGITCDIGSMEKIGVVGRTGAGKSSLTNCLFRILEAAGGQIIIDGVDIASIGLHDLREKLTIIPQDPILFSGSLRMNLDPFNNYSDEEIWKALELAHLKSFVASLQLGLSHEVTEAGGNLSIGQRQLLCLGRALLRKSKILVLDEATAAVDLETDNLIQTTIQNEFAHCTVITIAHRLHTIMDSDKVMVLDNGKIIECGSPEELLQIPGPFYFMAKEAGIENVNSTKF

Row | SMILES | IC50 (Bile salt export pump) | IC50 [1] | IC50 [2] | IC50 [3]
1 | OCCN1C[C@H](O)[C@@H](O)[C@H](O)[C@H]1CO [MIGLITOL] | > 133 µM | > 133 µM | > 133 µM | > 133 µM
2 | CCOc1ccc(C[C@H]2NC(=O)CCSSC[C@@H](C(=O)N3CCC[C@H]3C(=O)N[C@@H](CCCN)C(=O)NCC(N)=O)NC(=O)[C@H](CC(N)=O)NC(=O)[C@H]([C@@H](C)O)NC(=O)[C@H]([C@@H](C)CC)NC2=O)cc1 [ATOSIBAN] ([Mpa][dY](Et)ITNCP[Orn]G-NH2; disulfide 1-6) | > 133 µM | > 133 µM | > 133 µM | > 133 µM
3 | Nc1cccc2c1CN(C1CCC(=O)NC1=O)C2=O (stereo not drawn) [LENALIDOMIDE] | > 133 µM | > 133 µM | > 133 µM | > 133 µM
4 | CC[C@H]1OC(=O)[C@H](C)[C@@H](O[C@H]2C[C@@](C)(OC)[C@@H](O)[C@H](C)O2)[C@H](C)[C@@H](O[C@@H]2O[C@H](C)C[C@H](N(C)C)[C@H]2O)[C@](C)(O)C[C@@H](C)CN(C)[C@H](C)[C@@H](O)[C@]1(C)O [AZITHROMYCIN] | > 133 µM | > 133 µM | > 133 µM | > 133 µM
5 | NS(=O)(=O)c1cc(C2(O)NC(=O)c3ccccc32)ccc1Cl (stereo not drawn) [CHLORTHALIDONE] | > 133 µM | > 133 µM | > 133 µM | > 133 µM
6 | CNCCC=C1c2ccccc2CCc2ccccc21 [NORTRIPTYLINE] | > 133 µM | > 133 µM | > 133 µM | > 133 µM
7 | Cc1ccc(-c2ncc(Cl)cc2-c2ccc(S(C)(=O)=O)cc2)cn1 [ETORICOXIB] | 53.2 µM | > 133 µM | 53 µM | > 133 µM
8 | CCN(C(C)=O)c1cccc(-c2ccnc3c(C#N)cnn23)c1 [ZALEPLON] | > 133 µM | > 133 µM | > 133 µM | > 133 µM
9 | CCNC(=O)[C@@H]1CCCN1C(=O)[C@H](CCCNC(=N)N)NC(=O)[C@H](CC(C)C)NC(=O)[C@@H](CC(C)C)NC(=O)[C@H](Cc1ccc(O)cc1)NC(=O)[C@H](CO)NC(=O)[C@H](Cc1c[nH]c2ccccc12)NC(=O)[C@H](Cc1c[nH]cn1)NC(=O)[C@@H]1CCC(=O)N1 [LEUPROLIDE ACETATE] | > 133 µM | > 133 µM | > 133 µM | 80.2 µM
10 | Nc1nc(O)c2ncn(COC(CO)CO)c2n1 [GANCICLOVIR] | > 133 µM | > 133 µM | > 133 µM | > 133 µM
11 | CCC1(c2ccc(N)cc2)CCC(=O)NC1=O (stereo not drawn) [AMINOGLUTETHIMIDE] | > 133 µM | > 133 µM | > 133 µM | > 133 µM
12 | S=C=Nc1cccc2ccccc12 [1-NAPHTHYLISOTHIOCYANATE] | 69 µM | > 133 µM | > 133 µM | > 133 µM
13 | CCCNC(=O)NS(=O)(=O)c1ccc(Cl)cc1 [CHLORPROPAMIDE] | > 133 µM | > 133 µM | > 133 µM | > 133 µM
14 | C#C[C@]1(O)CC[C@H]2[C@@H]3CCc4cc(O)ccc4[C@H]3CC[C@@]21C [ETHINYL ESTRADIOL] | 14 µM | > 133 µM | > 133 µM | > 133 µM
15 | NCC1O[C@H](O[C@H]2[C@@H](O)[C@H](O[C@H]3[C@H](O)[C@@H](N)C[C@@H](N)[C@@H]3O[C@H]3O[C@H](CN)[C@@H](O)[C@H](O)[C@H]3N)O[C@@H]2CO)[C@H](N)[C@@H](O)[C@@H]1O (stereo partly drawn) | > 133 µM | > 133 µM | > 133 µM | > 133 µM
16 | Cc1cccc(C)c1OCC(C)N (stereo not drawn) [MEXILETINE] | > 133 µM | > 133 µM | > 133 µM | > 133 µM
17 | O=C(O)CCNC(=O)c1ccccc1 [BETAMIPRON] | > 133 µM | > 133 µM | > 133 µM | > 133 µM
18 | CC1(C)O[C@@H]2C[C@H]3[C@@H]4CCC5=CC(=O)C=C[C@]5(C)[C@@]4(F)[C@@H](O)C[C@]3(C)[C@]2(C(=O)CO)O1 [TRIAMCINOLONE ACETONIDE] | > 133 µM | > 133 µM | > 133 µM | > 133 µM
19 | NCc1ccc(S(N)(=O)=O)cc1 [MAFENIDE ACETATE] | > 133 µM | > 133 µM | > 133 µM | > 133 µM

Row | SMILES | IC50 (Bile salt export pump) | IC50 [1] | IC50 [2] | IC50 [3]
20 | Cn1c(=O)c2[nH]cnc2n(C)c1=O [THEOPHYLLINE] | > 133 µM | > 133 µM | > 133 µM | > 133 µM
21 | O=C(NCCNCC(O)COc1ccc(O)cc1)N1CCOCC1 (stereo not drawn) [XAMOTEROL] | > 133 µM | > 133 µM | > 133 µM | > 133 µM
22 | Clc1ccc(CO/N=C(\Cn2ccnc2)c2ccc(Cl)cc2Cl)c(Cl)c1 [OXICONAZOLE NITRATE] | 49.3 µM | > 133 µM | > 133 µM | > 133 µM
23 | NC(=O)N1c2ccccc2C=Cc2ccccc21 [CARBAMAZEPINE] | > 133 µM | > 133 µM | > 133 µM | > 133 µM
24 | O=C(CC(=O)C(F)(F)F)c1cccs1 | > 133 µM | > 133 µM | > 133 µM | > 133 µM
25 | CCCCCNC(=N)N/N=C/c1c[nH]c2ccc(OC)cc12 [TEGASEROD MALEATE] | > 133 µM | > 133 µM | > 133 µM | > 133 µM
26 | CCOC(=O)/C=C(C)/C=C/C=C(C)/C=C/c1c(C)cc(OC)c(C)c1C [ETRETINATE] | > 133 µM | > 133 µM | > 133 µM | > 133 µM
27 | CC(C)C(=O)OCC(=O)[C@@]12O[C@H](C3CCCCC3)O[C@@H]1C[C@H]1[C@@H]3CCC4=CC(=O)C=C[C@]4(C)[C@H]3[C@@H](O)C[C@@]12C [CICLESONIDE] | > 133 µM | > 133 µM | > 133 µM | > 133 µM
28 | CCCNCC(O)COc1ccccc1C(=O)CCc1ccccc1 (stereo not drawn) [PROPAFENONE] | > 133 µM | > 133 µM | > 133 µM | > 133 µM
29 | OCC(CO)N[C@H]1C[C@](O)(CO)[C@@H](O)[C@H](O)[C@H]1O [VOGLIBOSE] | > 133 µM | > 133 µM | > 133 µM | > 133 µM
30 | N[C@@H](CC(=O)N1CCn2c(nnc2C(F)(F)F)C1)Cc1cc(F)c(F)cc1F [SITAGLIPTIN] | > 133 µM | > 133 µM | > 133 µM | > 133 µM
31 | CN1CCC[C@H]1c1cccnc1 [NICOTINE] | > 133 µM | > 133 µM | > 133 µM | > 133 µM
32 | NC[C@H]1O[C@H](O[C@H]2[C@H](O)[C@@H](O[C@H]3O[C@H](CO)[C@@H](O)[C@H](N)[C@H]3O)[C@H](N)C[C@@H]2N)[C@H](N)C[C@@H]1O [TOBRAMYCIN] | > 133 µM | > 133 µM | > 133 µM | > 133 µM
33 | CCCCNC(=O)NS(=O)(=O)c1ccc(C)cc1 [TOLBUTAMIDE] | > 133 µM | > 133 µM | > 133 µM | > 133 µM
34 | COc1ccc(C(CN(C)C)C2(O)CCCCC2)cc1 (stereo not drawn) [VENLAFAXINE] | > 133 µM | > 133 µM | > 133 µM | > 133 µM
35 | Nc1c2c(nc3ccccc13)CCCC2 [TACRINE] | > 133 µM | > 133 µM | 23.7 µM | > 133 µM
36 | CN(C)CCc1c[nH]c2ccc(C[C@H]3COC(=O)N3)cc12 [ZOLMITRIPTAN] | > 133 µM | > 133 µM | > 133 µM | > 133 µM
37 | Nc1nc(=O)n([C@@H]2CS[C@H](CO)O2)cc1F [EMTRICITABINE] | > 133 µM | > 133 µM | > 133 µM | > 133 µM
